What all share (assay): FRET-based coupled-enzyme protein kinase inhibition assay
Holding throughout (assay type): biochemical
What all share (conditions): compound at 10 µM, 1% DMSO

One assay deals with T1, CHEK1 (CHK1) (Homo sapiens, UniProt O14757).
T1 sequence (O14757 1-476): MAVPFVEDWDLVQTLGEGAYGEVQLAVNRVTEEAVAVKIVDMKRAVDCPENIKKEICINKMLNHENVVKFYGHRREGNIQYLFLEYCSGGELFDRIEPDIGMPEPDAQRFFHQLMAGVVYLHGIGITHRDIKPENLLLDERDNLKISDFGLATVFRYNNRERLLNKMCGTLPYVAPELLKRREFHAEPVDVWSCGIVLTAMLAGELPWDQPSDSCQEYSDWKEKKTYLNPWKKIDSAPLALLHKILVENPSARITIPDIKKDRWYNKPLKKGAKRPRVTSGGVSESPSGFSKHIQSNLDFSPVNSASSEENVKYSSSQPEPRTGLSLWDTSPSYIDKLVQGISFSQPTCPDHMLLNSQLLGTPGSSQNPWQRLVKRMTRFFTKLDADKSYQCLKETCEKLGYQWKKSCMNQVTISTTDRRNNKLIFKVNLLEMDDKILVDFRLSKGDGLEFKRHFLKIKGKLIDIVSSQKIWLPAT
The procedure, abridged: (§1)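 FRET peptide (coumarin donor, fluorescein acceptor) was phosphorylated by each kinase in 50 mM HEPES pH 7.5, 10 mM MgCl2, 1 mM EDTA, 0.01% BRIJ-35 for 60 min at room temperature. ATP was at apparent Km, compounds in 1% DMSO. Protease development reagent then cleaved non-phosphorylated peptide over 60 min.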

Another assay deals with MAP4K4 (HGK) (Homo sapiens, UniProt O95819). The procedure, abridged: as §1
Chain of MAP4K4 (HGK) (O95819 whole entry, species assumed): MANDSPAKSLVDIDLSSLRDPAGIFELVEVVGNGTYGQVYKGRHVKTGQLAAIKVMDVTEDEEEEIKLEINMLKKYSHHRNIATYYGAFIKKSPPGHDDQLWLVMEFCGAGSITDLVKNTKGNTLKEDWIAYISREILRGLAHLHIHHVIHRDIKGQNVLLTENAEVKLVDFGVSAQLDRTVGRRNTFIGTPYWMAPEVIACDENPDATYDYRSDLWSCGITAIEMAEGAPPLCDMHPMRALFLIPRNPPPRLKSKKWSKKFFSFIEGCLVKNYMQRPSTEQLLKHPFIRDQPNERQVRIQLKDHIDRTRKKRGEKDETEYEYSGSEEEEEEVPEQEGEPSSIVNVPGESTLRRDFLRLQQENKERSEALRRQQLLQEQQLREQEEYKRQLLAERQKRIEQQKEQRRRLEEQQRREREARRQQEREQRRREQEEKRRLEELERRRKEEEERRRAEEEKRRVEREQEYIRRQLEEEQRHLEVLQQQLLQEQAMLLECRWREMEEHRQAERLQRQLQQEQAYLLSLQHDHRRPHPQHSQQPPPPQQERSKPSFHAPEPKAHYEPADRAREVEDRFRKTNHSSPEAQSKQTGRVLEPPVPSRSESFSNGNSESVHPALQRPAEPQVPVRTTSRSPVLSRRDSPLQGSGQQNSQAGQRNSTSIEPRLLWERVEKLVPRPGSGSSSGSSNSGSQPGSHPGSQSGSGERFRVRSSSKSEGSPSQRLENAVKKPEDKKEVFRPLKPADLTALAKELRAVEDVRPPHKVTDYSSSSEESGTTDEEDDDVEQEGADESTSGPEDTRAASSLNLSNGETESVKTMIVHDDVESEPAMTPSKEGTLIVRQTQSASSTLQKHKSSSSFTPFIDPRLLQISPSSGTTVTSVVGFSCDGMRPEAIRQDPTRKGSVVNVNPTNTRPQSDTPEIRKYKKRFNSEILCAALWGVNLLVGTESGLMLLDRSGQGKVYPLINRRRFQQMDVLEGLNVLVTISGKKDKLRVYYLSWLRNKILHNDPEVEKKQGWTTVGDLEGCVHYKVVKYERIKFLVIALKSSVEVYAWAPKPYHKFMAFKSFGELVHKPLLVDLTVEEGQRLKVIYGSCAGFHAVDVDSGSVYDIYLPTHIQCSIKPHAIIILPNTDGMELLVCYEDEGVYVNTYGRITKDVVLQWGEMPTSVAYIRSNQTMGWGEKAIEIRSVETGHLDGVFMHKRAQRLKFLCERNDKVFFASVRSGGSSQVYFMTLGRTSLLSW
For the next assay, the target named is ERBB2 (HER2) (Homo sapiens, UniProt P04626). The gist of the method: as §1
For another assay, the target named is T2, PHKG2 (Homo sapiens, UniProt P15735).
T2 sequence (P15735 1-406): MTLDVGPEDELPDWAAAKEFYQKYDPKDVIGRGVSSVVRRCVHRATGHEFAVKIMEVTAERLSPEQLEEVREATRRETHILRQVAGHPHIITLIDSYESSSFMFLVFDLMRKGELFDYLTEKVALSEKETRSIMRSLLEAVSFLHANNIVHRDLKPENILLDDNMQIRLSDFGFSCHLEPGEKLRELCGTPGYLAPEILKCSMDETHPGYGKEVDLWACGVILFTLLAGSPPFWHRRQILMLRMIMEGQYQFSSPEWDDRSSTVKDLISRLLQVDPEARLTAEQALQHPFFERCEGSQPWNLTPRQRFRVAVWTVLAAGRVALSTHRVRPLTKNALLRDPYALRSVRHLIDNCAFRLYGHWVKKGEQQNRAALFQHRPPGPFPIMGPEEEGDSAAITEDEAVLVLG
The gist of the method:
as §1

Another assay has as its target INSR (Homo sapiens, UniProt P06213). The procedure, abridged: as §1
For a further assay, the target named is ABL1 (Homo sapiens, UniProt P00519). The procedure, abridged:
as §1

The next assay addresses T3, AURKA (Aurora A) (Homo sapiens, UniProt O14965).
T3 sequence (O14965 1-403): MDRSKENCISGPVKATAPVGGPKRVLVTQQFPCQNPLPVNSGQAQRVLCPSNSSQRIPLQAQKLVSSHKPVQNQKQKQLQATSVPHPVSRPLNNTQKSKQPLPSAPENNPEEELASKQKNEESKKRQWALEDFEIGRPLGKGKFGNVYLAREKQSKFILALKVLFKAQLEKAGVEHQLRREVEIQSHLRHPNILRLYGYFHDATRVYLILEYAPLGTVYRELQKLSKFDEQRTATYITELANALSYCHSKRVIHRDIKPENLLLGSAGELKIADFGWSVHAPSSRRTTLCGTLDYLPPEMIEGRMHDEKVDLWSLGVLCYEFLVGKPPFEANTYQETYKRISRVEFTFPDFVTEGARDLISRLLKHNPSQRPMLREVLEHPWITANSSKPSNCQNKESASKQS
The gist of the method: as §1

For a further assay, the target named is AKT1 (PKB alpha) (Homo sapiens, UniProt P31749). The procedure, abridged: as §1
Chain of AKT1 (PKB alpha) (P31749 whole entry, species assumed): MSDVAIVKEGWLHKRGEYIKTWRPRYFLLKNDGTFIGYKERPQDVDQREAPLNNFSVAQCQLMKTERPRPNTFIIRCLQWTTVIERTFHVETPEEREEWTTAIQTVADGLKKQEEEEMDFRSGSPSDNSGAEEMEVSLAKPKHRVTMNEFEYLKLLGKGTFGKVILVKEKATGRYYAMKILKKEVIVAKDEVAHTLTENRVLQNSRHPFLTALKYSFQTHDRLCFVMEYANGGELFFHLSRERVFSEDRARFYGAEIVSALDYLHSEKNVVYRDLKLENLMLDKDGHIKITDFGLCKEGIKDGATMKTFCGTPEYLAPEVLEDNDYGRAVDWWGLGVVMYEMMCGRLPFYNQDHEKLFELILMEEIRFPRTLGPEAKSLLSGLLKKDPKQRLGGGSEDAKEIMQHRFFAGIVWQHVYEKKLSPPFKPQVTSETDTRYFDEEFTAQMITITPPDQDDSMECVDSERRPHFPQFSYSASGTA
In the next assay the target is SYK (Homo sapiens, UniProt P43405). The procedure, abridged:
as §1

Structures are written as SMILES.

Chain of ABL1 (P00519 whole entry, species assumed): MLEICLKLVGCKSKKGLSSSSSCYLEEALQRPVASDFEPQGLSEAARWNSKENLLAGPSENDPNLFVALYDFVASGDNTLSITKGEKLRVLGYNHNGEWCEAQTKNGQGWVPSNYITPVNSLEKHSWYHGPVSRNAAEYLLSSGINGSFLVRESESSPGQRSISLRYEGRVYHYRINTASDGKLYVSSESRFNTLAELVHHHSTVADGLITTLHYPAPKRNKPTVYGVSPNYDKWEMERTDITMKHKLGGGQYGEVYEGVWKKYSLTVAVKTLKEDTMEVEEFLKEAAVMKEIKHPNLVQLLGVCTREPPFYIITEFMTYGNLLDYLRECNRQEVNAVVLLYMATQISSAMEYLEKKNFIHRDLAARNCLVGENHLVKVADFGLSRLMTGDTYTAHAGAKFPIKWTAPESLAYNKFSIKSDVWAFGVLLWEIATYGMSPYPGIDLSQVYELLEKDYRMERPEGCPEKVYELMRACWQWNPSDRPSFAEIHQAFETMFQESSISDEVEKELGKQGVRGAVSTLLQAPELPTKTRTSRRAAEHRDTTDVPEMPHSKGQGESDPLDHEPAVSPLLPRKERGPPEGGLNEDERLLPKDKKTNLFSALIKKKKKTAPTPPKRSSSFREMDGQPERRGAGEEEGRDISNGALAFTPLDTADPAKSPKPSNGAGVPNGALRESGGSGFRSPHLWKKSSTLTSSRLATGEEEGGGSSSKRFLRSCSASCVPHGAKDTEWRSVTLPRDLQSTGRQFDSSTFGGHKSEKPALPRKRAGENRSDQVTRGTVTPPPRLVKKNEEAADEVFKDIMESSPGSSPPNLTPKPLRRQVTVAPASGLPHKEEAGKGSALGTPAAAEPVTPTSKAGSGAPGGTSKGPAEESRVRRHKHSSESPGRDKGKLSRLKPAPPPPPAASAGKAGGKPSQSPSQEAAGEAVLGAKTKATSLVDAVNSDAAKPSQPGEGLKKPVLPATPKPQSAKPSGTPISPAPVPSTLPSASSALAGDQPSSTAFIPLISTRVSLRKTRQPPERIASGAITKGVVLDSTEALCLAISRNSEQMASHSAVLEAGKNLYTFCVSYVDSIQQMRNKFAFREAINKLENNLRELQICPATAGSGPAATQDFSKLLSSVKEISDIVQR
Chain of INSR (P06213 28-1382, species assumed): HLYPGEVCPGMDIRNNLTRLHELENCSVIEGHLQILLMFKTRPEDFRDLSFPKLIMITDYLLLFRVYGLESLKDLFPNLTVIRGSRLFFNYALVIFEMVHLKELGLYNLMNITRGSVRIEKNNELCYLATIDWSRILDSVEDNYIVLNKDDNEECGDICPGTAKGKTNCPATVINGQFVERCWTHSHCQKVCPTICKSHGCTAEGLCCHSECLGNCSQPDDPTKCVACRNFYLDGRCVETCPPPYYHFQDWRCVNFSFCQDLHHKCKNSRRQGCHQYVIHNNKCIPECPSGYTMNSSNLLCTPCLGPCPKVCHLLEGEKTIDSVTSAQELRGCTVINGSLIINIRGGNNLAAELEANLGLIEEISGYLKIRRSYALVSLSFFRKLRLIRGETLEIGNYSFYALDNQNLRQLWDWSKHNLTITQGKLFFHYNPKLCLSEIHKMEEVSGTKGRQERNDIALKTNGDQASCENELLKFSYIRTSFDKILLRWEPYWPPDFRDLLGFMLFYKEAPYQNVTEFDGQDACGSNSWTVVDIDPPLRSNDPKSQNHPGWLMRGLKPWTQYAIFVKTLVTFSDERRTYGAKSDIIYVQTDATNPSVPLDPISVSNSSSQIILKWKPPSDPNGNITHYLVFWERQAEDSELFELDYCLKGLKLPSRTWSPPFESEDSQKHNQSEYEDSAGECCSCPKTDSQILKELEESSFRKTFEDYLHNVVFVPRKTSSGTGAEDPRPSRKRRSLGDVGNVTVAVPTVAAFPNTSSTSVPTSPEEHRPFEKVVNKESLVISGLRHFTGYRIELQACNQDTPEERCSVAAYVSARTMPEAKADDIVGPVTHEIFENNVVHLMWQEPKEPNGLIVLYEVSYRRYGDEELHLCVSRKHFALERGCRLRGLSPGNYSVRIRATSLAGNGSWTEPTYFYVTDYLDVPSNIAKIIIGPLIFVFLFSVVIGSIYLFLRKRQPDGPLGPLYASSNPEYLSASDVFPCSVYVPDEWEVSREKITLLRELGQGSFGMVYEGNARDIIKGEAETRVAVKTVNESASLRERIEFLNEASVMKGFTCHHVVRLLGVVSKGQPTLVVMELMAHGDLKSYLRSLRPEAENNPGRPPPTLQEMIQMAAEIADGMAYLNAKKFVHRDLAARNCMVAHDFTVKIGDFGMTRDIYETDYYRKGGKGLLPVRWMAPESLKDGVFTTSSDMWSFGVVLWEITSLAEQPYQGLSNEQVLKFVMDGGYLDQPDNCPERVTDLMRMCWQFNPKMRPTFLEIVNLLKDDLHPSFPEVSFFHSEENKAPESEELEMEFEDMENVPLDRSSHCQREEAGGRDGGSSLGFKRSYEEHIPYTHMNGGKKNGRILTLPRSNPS

Usually inhibition stands for the change of the read-out against control, counted positive when it falls. For `Nc1ncnc2c1ncn2[C@@H]1O[C@H](COC(=O)N2CCN(C(=O)N3CCOCC3)CC2)[C@@H](O)[C@H]1O` [Compound C89], the inhibition at 10 µM on CHEK1 (CHK1) is -20%; against MAP4K4 (HGK) it was 9%; at ERBB2 (HER2), -7%; at PHKG2, -2%; at INSR, 0%; at ABL1, -3%. Moreover, the inhibition at 10 µM was -7% against AURKA (Aurora A), 2% against AKT1 (PKB alpha) and -5% against SYK.
Consider `Nc1ncnc2c1ncn2[C@@H]1O[C@H](COC(=O)N2CCC(Cc3ccc(F)cc3)C2)[C@@H](O)[C@H]1O` (stereo partly drawn) [Compound C66], for which the inhibition at 10 µM on CHEK1 (CHK1) was 18%; on MAP4K4 (HGK), 1%; against ERBB2 (HER2), 11%; against PHKG2 it was -2%; against INSR it was -5%; at ABL1, -2%. Besides, the figures for the inhibition at 10 µM at AURKA (Aurora A), on AKT1 (PKB alpha) and on SYK were 4%, -1% and 1%, respectively.
Consider `Nc1ncnc2c1ncn2[C@@H]1O[C@H](COC(=O)N2CCN(CCc3ccccc3)CC2)[C@@H](O)[C@H]1O` [Compound C26], for which the inhibition at 10 µM on CHEK1 (CHK1) is 20%; on MAP4K4 (HGK), 17%; against ERBB2 (HER2), 8%; against PHKG2 it was -1%; against INSR it was 2%; against ABL1, 2%. The results for the inhibition at 10 µM on AURKA (Aurora A), against AKT1 (PKB alpha) and at SYK were 1%, 0% and -4%, respectively.
As to `CN1CCN(CCNC(=O)OC[C@H]2O[C@@H](n3cnc4c(N)ncnc43)[C@H](O)[C@@H]2O)CC1` [Compound C46], the inhibition at 10 µM was 2% against CHEK1 (CHK1); 13% on MAP4K4 (HGK); -14% against ERBB2 (HER2); 0% against PHKG2; 0% against INSR; 10% against ABL1. Further, the inhibition at 10 µM worked out at 3% at AURKA (Aurora A), 4% against AKT1 (PKB alpha) and 0% against SYK.
`CC(C)N1CCC(NC(=O)OC[C@H]2O[C@@H](n3cnc4c(N)ncnc43)[C@H](O)[C@@H]2O)CC1` [Compound C19]: the inhibition at 10 µM against CHEK1 (CHK1) is -16%; on MAP4K4 (HGK), 17%; at ERBB2 (HER2) it was -7%; at PHKG2, -3%; against INSR it was 0%; on ABL1, -3%. For the same molecule, the inhibition at 10 µM on AURKA (Aurora A) is 6%; against AKT1 (PKB alpha) it was 3%; against SYK, -1%.
With `Nc1ncnc2c1ncn2[C@@H]1O[C@H](COC(=O)NCCCc2nc3ccccc3[nH]2)[C@@H](O)[C@H]1O` [Compound C1], the inhibition at 10 µM against CHEK1 (CHK1) is -20%; at MAP4K4 (HGK) it was 17%; against ERBB2 (HER2), 5%; on PHKG2, -3%; against INSR it was 0%; against ABL1, 13%. In addition, the inhibition at 10 µM against AURKA (Aurora A) was 9%; against AKT1 (PKB alpha), -2%; at SYK it was 3%.
Turning to `CN(C)CCNC(=O)OC[C@H]1O[C@@H](n2cnc3c(N)ncnc32)[C@H](O)[C@@H]1O` [Compound C85], the inhibition at 10 µM against CHEK1 (CHK1) is -9%; on MAP4K4 (HGK), -8%; against ERBB2 (HER2), -13%; against PHKG2 it was 1%; at INSR, 3%; at ABL1 it was -2%. In addition, the inhibition at 10 µM was -11% against AURKA (Aurora A), 4% on AKT1 (PKB alpha) and -1% at SYK.
Consider `CS(=O)(=O)N1CC2(CCN(C(=O)OC[C@H]3O[C@@H](n4cnc5c(N)ncnc54)[C@H](O)[C@@H]3O)CC2)c2ccccc21` [Compound C98], for which the inhibition at 10 µM was -8% against CHEK1 (CHK1); 68% against MAP4K4 (HGK); 5% at ERBB2 (HER2); -1% at PHKG2; -2% against INSR; 15% against ABL1. In addition, the inhibition at 10 µM against AURKA (Aurora A) worked out at 0%; at AKT1 (PKB alpha) it was 2%; against SYK, 2%.
With `Nc1ncnc2c1ncn2[C@@H]1O[C@H](COC(=O)NC[C@H](O)CO)[C@@H](O)[C@H]1O` [Compound C8], the inhibition at 10 µM against CHEK1 (CHK1) is -8%; against MAP4K4 (HGK), 9%; against ERBB2 (HER2), -7%; against PHKG2 it was -3%; on INSR it was 2%; against ABL1, 22%. Also, the inhibition at 10 µM is -7% against AURKA (Aurora A), 7% against AKT1 (PKB alpha) and 7% at SYK.
As for `Nc1ncnc2c1ncn2[C@@H]1O[C@H](COC(=O)N2CCN(Cc3ccccc3)CC2CO)[C@@H](O)[C@H]1O` (stereo partly drawn) [Compound C13], the inhibition at 10 µM is -8% against CHEK1 (CHK1); -5% on MAP4K4 (HGK); 3% against ERBB2 (HER2); 0% against PHKG2; -3% at INSR; 0% on ABL1. For the same molecule, the inhibition at 10 µM against AURKA (Aurora A) is -1%; at AKT1 (PKB alpha), 2%; on SYK it was 0%.
Consider `Nc1ncnc2c1ncn2[C@@H]1O[C@H](COC(=O)N2CCC[C@H]2CO)[C@@H](O)[C@H]1O` [Compound C9], for which the inhibition at 10 µM against CHEK1 (CHK1) is 14%; against MAP4K4 (HGK), -2%; at ERBB2 (HER2), -19%; at PHKG2, -4%; at INSR, 4%; against ABL1, -2%. In addition, the values for the inhibition at 10 µM on AURKA (Aurora A), on AKT1 (PKB alpha) and at SYK were -5%, 3% and -4%, respectively.
Consider `Nc1ncnc2c1ncn2[C@@H]1O[C@H](COC(=O)NCCN2CCCC2=O)[C@@H](O)[C@H]1O` [Compound C22], for which the inhibition at 10 µM was -14% against CHEK1 (CHK1); 17% against MAP4K4 (HGK); -9% against ERBB2 (HER2); -6% on PHKG2; -5% against INSR; -5% against ABL1. Also, the inhibition at 10 µM against AURKA (Aurora A) was 5%; against AKT1 (PKB alpha), 0%; on SYK it was -8%.
Consider `C[C@@H](NC(=O)OC[C@H]1O[C@@H](n2cnc3c(N)ncnc32)[C@H](O)[C@@H]1O)c1ccc(Cl)cc1` [Compound C4], for which the inhibition at 10 µM was -11% against CHEK1 (CHK1); 16% at MAP4K4 (HGK); 2% on ERBB2 (HER2); -2% at PHKG2; 5% against INSR; 11% at ABL1. In addition, the inhibition at 10 µM was 8% at AURKA (Aurora A), -2% against AKT1 (PKB alpha) and 4% at SYK.
As to `Nc1ncnc2c1ncn2[C@@H]1O[C@H](COC(=O)N[C@@H]2CCN(Cc3ccccc3)C2)[C@@H](O)[C@H]1O` [Compound C10], the inhibition at 10 µM was -3% on CHEK1 (CHK1); 8% on MAP4K4 (HGK); -5% against ERBB2 (HER2); 0% on PHKG2; 3% at INSR; 10% at ABL1. Further, the inhibition at 10 µM is -1% against AURKA (Aurora A), 4% on AKT1 (PKB alpha) and 1% against SYK.

Source of the values: patent EP3212201B1, “NUCLEOSIDE KINASE INHIBITORS” (BCI Pharma, priority 2014, dated 2016).
